Test results published in US6358885B1, “Substituted phenylheterocyclic herbicides” (Mississippi State University, priority 1992, dated 2002).

Key:
[1] = system: rape; assay: Test C preemergence/postemergence greenhouse plant response rating 0 to 100; assay type: in vivo, Brassica napus; conditions: POSTEMERGENCE
Summary of the method: (§1)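 Compounds in non-phytotoxic solvent applied preemergence to sandy loam one day after planting, postemergence at the 1–4 leaf stage, or to ~2.5 cm floodwater over silt loam.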

[2] = system: cotton; assay: Test B preemergence/postemergence greenhouse plant response rating 0 to 10; assay type: in vivo, Gossypium hirsutum; conditions: for Plant response rating, Cotton: 0 to 10 scale
Summary of the method: (§2)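 Test chemicals, dissolved in a non-phytotoxic solvent, were applied to soil at planting and, at the same time, over foliage of seedlings at the one to four leaf stage.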

[3] = system: corn; assay: Test C preemergence/postemergence greenhouse plant response rating 0 to 100; assay type: in vivo, Zea mays; conditions: POSTEMERGENCE
Summary of the method: as §1

[4] = system: blackgrass; assay: as above; assay type: in vivo, Alopecurus myosuroides; conditions: POSTEMERGENCE
Summary of the method: as §1

[5] = system: duck salad; assay: Test C flood test plant response rating 0 to 100; assay type: in vivo, Heteranthera limosa
Summary of the method: as §1

[6] = system: bedstraw; assay: Test B preemergence/postemergence greenhouse plant response rating 0 to 10; assay type: in vivo, Galium aparine; conditions: POSTEMERGENCE
Summary of the method: as §2

[7] = system: wheat; assay: Test C preemergence/postemergence greenhouse plant response rating 0 to 100; assay type: in vivo, Triticum aestivum; conditions: POSTEMERGENCE
Summary of the method: as §1

[8] = system: rice; assay: Test B preemergence/postemergence greenhouse plant response rating 0 to 10; assay type: in vivo, Oryza sativa; conditions: 0 to 10 scale
Summary of the method: as §2

[9] = system: wild buckwheat; assay: as above; assay type: in vivo, Polygonum convolvulus; conditions: 0 to 10 scale
Summary of the method: as §2

[10] = system: sugar beet; assay: Test C preemergence/postemergence greenhouse plant response rating 0 to 100; assay type: in vivo, Beta vulgaris; conditions: POSTEMERGENCE
Summary of the method: as §1

[11] = system: barley; assay: Test B preemergence/postemergence greenhouse plant response rating 0 to 10; assay type: in vivo, Hordeum vulgare; conditions: for Plant response rating, Barley: 0 to 10 scale
Summary of the method: as §2

[12] = system: cheatgrass; assay: as above; assay type: in vivo, Bromus secalinus; conditions: for Plant response rating, Cheatgrass: 0 to 10 scale
Summary of the method: as §2

[13] = system: giant foxtail; assay: Test C preemergence/postemergence greenhouse plant response rating 0 to 100; assay type: in vivo, Setaria faberii; conditions: POSTEMERGENCE
Summary of the method: as §1

[14] = system: ryegrass; assay: as above; assay type: in vivo, Lolium multiflorum; conditions: POSTEMERGENCE
Summary of the method: as §1

[15] = system: barnyardgrass; assay: Test C flood test plant response rating 0 to 100; assay type: in vivo, Echinochloa crus-galli
Summary of the method: as §1

[16] = system: blackgrass; assay: Test B preemergence/postemergence greenhouse plant response rating 0 to 10; assay type: in vivo, Alopecurus myosuroides; conditions: for Plant response rating, Blackgrass: 0 to 10 scale
Summary of the method: as §2

[17] = system: cocklebur; assay: as above; assay type: in vivo, Xanthium pensylvanicum; conditions: for Plant response rating, Cocklebur: 0 to 10 scale
Summary of the method: as §2

[18] = system: lambsquarters; assay: Test C preemergence/postemergence greenhouse plant response rating 0 to 100; assay type: in vivo, Chenopodium album; conditions: POSTEMERGENCE
Summary of the method: as §1

[19] = POSTEMERGENCE section, flood test, Rate 1 g/ha
[20] = Rate 16 g/ha, under POSTEMERGENCE head (flood test species)
[21] = flood test species listed under POSTEMERGENCE, 62 g/ha, 0 to 100 scale

SMILES: CCCN1C(=O)COc2cc(F)c(-c3nn4c(c3Cl)CCCC4)cc21 [Compound 32]
- Plant response rating, Rape ([1]; 62 g/ha, 0 to 100 scale): 100
- Plant response rating (0 to 100), Rape ([1]; Rate 1 g/ha): 60
- Plant response rating (0 to 100), Rape ([1]; Rate 4 g/ha): 85
- Plant response rating (0 to 100), Rape ([1]; Rate 16 g/ha): 95
- Plant response rating, Cotton ([2]; POSTEMERGENCE, Rate 10 g/ha): 10
- Plant response rating (0 to 10 scale), Cotton ([2]; POSTEMERGENCE, Rate 50 g/ha): 10
- Plant response rating, Cotton ([2]; PREEMERGENCE, Rate 10 g/ha): 0
- Plant response rating, Cotton ([2]; PREEMERGENCE, Rate 50 g/ha): 8
- Plant response rating, Corn ([3]; 62 g/ha, 0 to 100 scale): 50
- Plant response rating (0 to 100), Corn ([3]; Rate 1 g/ha): 20
- Plant response rating (0 to 100), Corn ([3]; Rate 4 g/ha): 30
- Plant response rating (0 to 100), Corn ([3]; Rate 16 g/ha): 40
- Plant response rating, Blackgrass ([4]; 62 g/ha, 0 to 100 scale): 50
- Plant response rating (0 to 100), Blackgrass ([4]; Rate 1 g/ha): 10
- Plant response rating (0 to 100), Blackgrass ([4]; Rate 4 g/ha): 30
- Plant response rating (0 to 100), Blackgrass ([4]; Rate 16 g/ha): 30
- Plant response rating (0 to 100), Duck salad [5, 19]: 0
- Plant response rating (0 to 100), Duck salad ([5]; POSTEMERGENCE section, flood test, Rate 4 g/ha): 0
- Plant response rating (0 to 100), Duck salad [5, 20]: 30
- Plant response rating Duck salad [5, 21]: 60
- Plant response rating, Bedstraw ([6]; Rate 10 g/ha, 0 to 10 scale): 8
- Plant response rating (0 to 10 scale), Bedstraw ([6]; Rate 50 g/ha): 10
- Plant response rating, Wheat ([7]; 62 g/ha, 0 to 100 scale): 50
- Plant response rating (0 to 100), Wheat ([7]; Rate 1 g/ha): 10
- Plant response rating (0 to 100), Wheat ([7]; Rate 4 g/ha): 30
- Plant response rating (0 to 100), Wheat ([7]; Rate 16 g/ha): 30
- Plant response rating, Rice ([8]; POSTEMERGENCE, Rate 10 g/ha): 4
- Plant response rating, Rice ([8]; POSTEMERGENCE, Rate 50 g/ha): 7
- Plant response rating, Rice ([8]; PREEMERGENCE, Rate 50 g/ha): 1
- Plant response rating, Wild buckwheat ([9]; POSTEMERGENCE, Rate 10 g/ha): 9
- Plant response rating, Wild buckwheat ([9]; POSTEMERGENCE, Rate 50 g/ha): 10
- Plant response rating, Wild buckwheat ([9]; PREEMERGENCE, Rate 50 g/ha): 8
- Plant response rating, Sugar beet ([10]; 62 g/ha, 0 to 100 scale): 100
- Plant response rating (0 to 100), Sugar beet ([10]; Rate 1 g/ha): 80
- Plant response rating (0 to 100), Sugar beet ([10]; Rate 4 g/ha): 100
- Plant response rating (0 to 100), Sugar beet ([10]; Rate 16 g/ha): 100
- Plant response rating, Barley ([11]; POSTEMERGENCE, Rate 10 g/ha): 5
- Plant response rating (0 to 10 scale), Barley ([11]; POSTEMERGENCE, Rate 50 g/ha): 5
- Plant response rating, Barley ([11]; PREEMERGENCE, Rate 10 g/ha): 0
- Plant response rating, Barley ([11]; PREEMERGENCE, Rate 50 g/ha): 0
- Plant response rating, Cheatgrass ([12]; POSTEMERGENCE, Rate 10 g/ha): 4
- Plant response rating (0 to 10 scale), Cheatgrass ([12]; POSTEMERGENCE, Rate 50 g/ha): 5
- Plant response rating, Cheatgrass ([12]; PREEMERGENCE, Rate 10 g/ha): 2
- Plant response rating, Cheatgrass ([12]; PREEMERGENCE, Rate 50 g/ha): 5
- Plant response rating, Giant foxtail ([13]; 62 g/ha, 0 to 100 scale): 70
- Plant response rating (0 to 100), Giant foxtail ([13]; Rate 1 g/ha): 20
- Plant response rating (0 to 100), Giant foxtail ([13]; Rate 4 g/ha): 30
- Plant response rating (0 to 100), Giant foxtail ([13]; Rate 16 g/ha): 50
- Plant response rating Ryegrass ([14]; 62 g/ha, 0 to 100 scale): 40
- Plant response rating (0 to 100), Ryegrass ([14]; Rate 1 g/ha): 10
- Plant response rating (0 to 100), Ryegrass ([14]; Rate 4 g/ha): 20
- Plant response rating (0 to 100), Ryegrass ([14]; Rate 16 g/ha): 30
- Plant response rating (0 to 100), Barnyardgrass [15, 19]: 30
- Plant response rating (0 to 100), Barnyardgrass ([15]; Rate 4 g/ha, under POSTEMERGENCE head (flood test species)): 55
- Plant response rating (0 to 100), Barnyardgrass [15, 20]: 100
- Plant response rating, Barnyardgrass [15, 21]: 100
- Plant response rating, Blackgrass ([16]; POSTEMERGENCE, Rate 10 g/ha): 4
- Plant response rating (0 to 10 scale), Blackgrass ([16]; POSTEMERGENCE, Rate 50 g/ha): 5
- Plant response rating, Blackgrass ([16]; PREEMERGENCE, Rate 10 g/ha): 5
- Plant response rating, Blackgrass ([16]; PREEMERGENCE, Rate 50 g/ha): 5
- Plant response rating, Cocklebur ([17]; POSTEMERGENCE, Rate 10 g/ha): 9
- Plant response rating (0 to 10 scale), Cocklebur ([17]; POSTEMERGENCE, Rate 50 g/ha): 10
- Plant response rating, Cocklebur ([17]; PREEMERGENCE, Rate 10 g/ha): 0
- Plant response rating, Cocklebur ([17]; PREEMERGENCE, Rate 50 g/ha): 5
- Plant response rating Lambsquarters ([18]; 62 g/ha, 0 to 100 scale): 100
- Plant response rating (0 to 100), Lambsquarters ([18]; Rate 1 g/ha): 70
- Plant response rating (0 to 100), Lambsquarters ([18]; Rate 4 g/ha): 80
- Plant response rating (0 to 100), Lambsquarters ([18]; Rate 16 g/ha): 100
